Reference: PubChem BioAssay AID2060900 (Molecular Pharmacology Branch, DTP, NCI, 2025)

system: 521955-158-R2-J5-PDC complex spheroids, viability; assay: Anticancer human tumor 521955-158-R2-J5-PDC patient-derived pancreatic carcinoma cell line growth inhibition [RAS]; details: second compound 0.00316 µM; first compound 1 µM; stronger effect = lower value
Procedure, shortened: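 Multi-cell-type spheroids: tumor cells plus HUVEC endothelial cells and mesenchymal stem cells. RAS-pathway inhibitors were combined with targeted agents, each dosed in half-log steps down from clinical Cmax, or from 10 microM when Cmax was unknown.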
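Further: spheroids also contain HUVEC endothelial cells and mesenchymal stem cells as stroma; compound exposure lasted seven days before the viability read.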

Compound | viability, T/C [%]
C[C@@H](NC(=O)c1ncnc(N)c1Cl)c1ncc(C(=O)Nc2cc(C(F)(F)F)c(Cl)cn2)s1 + C=CC(=O)N1CCN(c2nc(OCC3CCCN3C)nc3c(F)c(-c4nc(N)cc(C)c4C(F)(F)F)c(Cl)cc23)C(C)C1 | 103
O=C(c1ccc(F)c(F)c1Nc1ccc(I)cc1F)N1CC(O)([C@@H]2CCCCN2)C1 + C=CC(=O)N1CCN(c2nc(OCC3CCCN3C)nc3c(F)c(-c4nc(N)cc(C)c4C(F)(F)F)c(Cl)cc23)C(C)C1 | 23.3

same assay, conditions: second compound 0.00316 µM; first compound 3.16 µM; stronger effect = lower value

Compound | viability, T/C [%]
CC(C)NCC(C(=O)N1CCN(c2ncnc3c2C(C)CC3O)CC1)c1ccc(Cl)cc1 (stereo unspecified) + C=CC(=O)N1CCN(c2nc(OCC3CCCN3C)nc3c(F)c(-c4nc(N)cc(C)c4C(F)(F)F)c(Cl)cc23)C(C)C1 | 66.4
CC(Nc1ccc2c(c1)OCCn1cc(N3C(=O)OCC3C(F)F)nc1-2)C(N)=O (stereo unspecified) + C=CC(=O)N1CCN(c2nc(OCC3CCCN3C)nc3c(F)c(-c4nc(N)cc(C)c4C(F)(F)F)c(Cl)cc23)C(C)C1 | 38.4
C[C@@H](NC(=O)c1ncnc(N)c1Cl)c1ncc(C(=O)Nc2cc(C(F)(F)F)c(Cl)cn2)s1 + C=CC(=O)N1CCN(c2nc(OCC3CCCN3C)nc3c(F)c(-c4nc(N)cc(C)c4C(F)(F)F)c(Cl)cc23)C(C)C1 | 89.3

same assay, conditions: second compound 0.00316 µM; first compound 10 µM; stronger effect = lower value

Compound | viability, T/C [%]
CC(C)NCC(C(=O)N1CCN(c2ncnc3c2C(C)CC3O)CC1)c1ccc(Cl)cc1 (stereo unspecified) + C=CC(=O)N1CCN(c2nc(OCC3CCCN3C)nc3c(F)c(-c4nc(N)cc(C)c4C(F)(F)F)c(Cl)cc23)C(C)C1 | 54.6
CC(Nc1ccc2c(c1)OCCn1cc(N3C(=O)OCC3C(F)F)nc1-2)C(N)=O (stereo unspecified) + C=CC(=O)N1CCN(c2nc(OCC3CCCN3C)nc3c(F)c(-c4nc(N)cc(C)c4C(F)(F)F)c(Cl)cc23)C(C)C1 | 19.8
C[C@@H](NC(=O)c1ncnc(N)c1Cl)c1ncc(C(=O)Nc2cc(C(F)(F)F)c(Cl)cn2)s1 + C=CC(=O)N1CCN(c2nc(OCC3CCCN3C)nc3c(F)c(-c4nc(N)cc(C)c4C(F)(F)F)c(Cl)cc23)C(C)C1 | 56.3

same assay, conditions: second compound 0.01 µM; first compound 0.000316 µM; stronger effect = lower value

Compound | viability, T/C [%]
CC(C)n1nc(-c2ccc3oc(N)nc3c2)c2c(N)ncnc21 + C=CC(=O)N1CCN(c2nc(OCC3CCCN3C)nc3c(F)c(-c4nc(N)cc(C)c4C(F)(F)F)c(Cl)cc23)C(C)C1 | 93.8

same assay, conditions: second compound 0.01 µM; first compound 0.001 µM; stronger effect = lower value

Compound | viability, T/C [%]
CC(C)n1nc(-c2ccc3oc(N)nc3c2)c2c(N)ncnc21 + C=CC(=O)N1CCN(c2nc(OCC3CCCN3C)nc3c(F)c(-c4nc(N)cc(C)c4C(F)(F)F)c(Cl)cc23)C(C)C1 | 113

same assay, conditions: second compound 0.01 µM; first compound 0.00316 µM; stronger effect = lower value

Compound | viability, T/C [%]
CC(C)n1nc(-c2ccc3oc(N)nc3c2)c2c(N)ncnc21 + C=CC(=O)N1CCN(c2nc(OCC3CCCN3C)nc3c(F)c(-c4nc(N)cc(C)c4C(F)(F)F)c(Cl)cc23)C(C)C1 | 95.9
O=C(c1ccc(F)c(F)c1Nc1ccc(I)cc1F)N1CC(O)([C@@H]2CCCCN2)C1 + C=CC(=O)N1CCN(c2nc(OCC3CCCN3C)nc3c(F)c(-c4nc(N)cc(C)c4C(F)(F)F)c(Cl)cc23)C(C)C1 | 84.2

same assay, conditions: second compound 0.01 µM; first compound 0.01 µM; stronger effect = lower value

Compound | viability, T/C [%]
CC(C)n1nc(-c2ccc3oc(N)nc3c2)c2c(N)ncnc21 + C=CC(=O)N1CCN(c2nc(OCC3CCCN3C)nc3c(F)c(-c4nc(N)cc(C)c4C(F)(F)F)c(Cl)cc23)C(C)C1 | 88
O=C(c1ccc(F)c(F)c1Nc1ccc(I)cc1F)N1CC(O)([C@@H]2CCCCN2)C1 + C=CC(=O)N1CCN(c2nc(OCC3CCCN3C)nc3c(F)c(-c4nc(N)cc(C)c4C(F)(F)F)c(Cl)cc23)C(C)C1 | 45.3

same assay, conditions: second compound 0.01 µM; first compound 0.0316 µM; stronger effect = lower value

Compound | viability, T/C [%]
CC(C)NCC(C(=O)N1CCN(c2ncnc3c2C(C)CC3O)CC1)c1ccc(Cl)cc1 (stereo unspecified) + C=CC(=O)N1CCN(c2nc(OCC3CCCN3C)nc3c(F)c(-c4nc(N)cc(C)c4C(F)(F)F)c(Cl)cc23)C(C)C1 | 77
CC(C)n1nc(-c2ccc3oc(N)nc3c2)c2c(N)ncnc21 + C=CC(=O)N1CCN(c2nc(OCC3CCCN3C)nc3c(F)c(-c4nc(N)cc(C)c4C(F)(F)F)c(Cl)cc23)C(C)C1 | 49.3
CC(Nc1ccc2c(c1)OCCn1cc(N3C(=O)OCC3C(F)F)nc1-2)C(N)=O (stereo unspecified) + C=CC(=O)N1CCN(c2nc(OCC3CCCN3C)nc3c(F)c(-c4nc(N)cc(C)c4C(F)(F)F)c(Cl)cc23)C(C)C1 | 64.1
C[C@@H](NC(=O)c1ncnc(N)c1Cl)c1ncc(C(=O)Nc2cc(C(F)(F)F)c(Cl)cn2)s1 + C=CC(=O)N1CCN(c2nc(OCC3CCCN3C)nc3c(F)c(-c4nc(N)cc(C)c4C(F)(F)F)c(Cl)cc23)C(C)C1 | 107
O=C(c1ccc(F)c(F)c1Nc1ccc(I)cc1F)N1CC(O)([C@@H]2CCCCN2)C1 + C=CC(=O)N1CCN(c2nc(OCC3CCCN3C)nc3c(F)c(-c4nc(N)cc(C)c4C(F)(F)F)c(Cl)cc23)C(C)C1 | 45.7

same assay, conditions: second compound 0.01 µM; first compound 0.1 µM; stronger effect = lower value

Compound | viability, T/C [%]
CC(C)NCC(C(=O)N1CCN(c2ncnc3c2C(C)CC3O)CC1)c1ccc(Cl)cc1 (stereo unspecified) + C=CC(=O)N1CCN(c2nc(OCC3CCCN3C)nc3c(F)c(-c4nc(N)cc(C)c4C(F)(F)F)c(Cl)cc23)C(C)C1 | 115
CC(C)n1nc(-c2ccc3oc(N)nc3c2)c2c(N)ncnc21 + C=CC(=O)N1CCN(c2nc(OCC3CCCN3C)nc3c(F)c(-c4nc(N)cc(C)c4C(F)(F)F)c(Cl)cc23)C(C)C1 | 29.5
CC(Nc1ccc2c(c1)OCCn1cc(N3C(=O)OCC3C(F)F)nc1-2)C(N)=O (stereo unspecified) + C=CC(=O)N1CCN(c2nc(OCC3CCCN3C)nc3c(F)c(-c4nc(N)cc(C)c4C(F)(F)F)c(Cl)cc23)C(C)C1 | 58.3
C[C@@H](NC(=O)c1ncnc(N)c1Cl)c1ncc(C(=O)Nc2cc(C(F)(F)F)c(Cl)cn2)s1 + C=CC(=O)N1CCN(c2nc(OCC3CCCN3C)nc3c(F)c(-c4nc(N)cc(C)c4C(F)(F)F)c(Cl)cc23)C(C)C1 | 134
O=C(c1ccc(F)c(F)c1Nc1ccc(I)cc1F)N1CC(O)([C@@H]2CCCCN2)C1 + C=CC(=O)N1CCN(c2nc(OCC3CCCN3C)nc3c(F)c(-c4nc(N)cc(C)c4C(F)(F)F)c(Cl)cc23)C(C)C1 | 38.2

same assay, conditions: second compound 0.01 µM; first compound 0.316 µM; stronger effect = lower value

Compound | viability, T/C [%]
CC(C)NCC(C(=O)N1CCN(c2ncnc3c2C(C)CC3O)CC1)c1ccc(Cl)cc1 (stereo unspecified) + C=CC(=O)N1CCN(c2nc(OCC3CCCN3C)nc3c(F)c(-c4nc(N)cc(C)c4C(F)(F)F)c(Cl)cc23)C(C)C1 | 95.6
CC(Nc1ccc2c(c1)OCCn1cc(N3C(=O)OCC3C(F)F)nc1-2)C(N)=O (stereo unspecified) + C=CC(=O)N1CCN(c2nc(OCC3CCCN3C)nc3c(F)c(-c4nc(N)cc(C)c4C(F)(F)F)c(Cl)cc23)C(C)C1 | 43.5
